# How the values were obtained:
# [1] = system: high-risk patients diagnosed with primary osteoporosis; assay: Working Example 2: bone density of lumbar spine and femur by DXA; type: in vivo, human; conditions: 200 units weekly; for Change in bone density (%), lumbar spine / Change in bone density (%), neck of femur / Change in bone density (%), proximal femur: patients taking glucocorticoid
# Procedure: For the bone density of the femur, only the left side of the proximal part of the femur, rotated 20°, was measured at the start and every 24 weeks thereafter using dual-energy x-ray absorptiometry (DXA).
# [2] = system: patients diagnosed with primary osteoporosis; assay: Working Example 1: new vertebral fractures by x-ray (method of Genant et al.); type: in vivo, human
# Procedure: Both the 5 and 100 unit groups were administered two tablets of a calcium agent (containing 500 mg of precipitated calcium carbonate [200 mg as calcium] per tablet) once a day.
# The osteoporosis patients were classified as condition shown in Table 1 based on the bone fracture risk factors present, as in Non-patent Reference 13, and compared. High-risk patients were defined as having all three factors involving age, prevalent vertebral fractures, and bone density or bone atrophy; low-risk patients were defined as other than the above.
# [3] = system: osteoporosis patients having normal renal function, mild or moderate renal dysfunction; conditions: in vivo
# Source text: The incidence of adverse events was studied after administering the test drug to the a group of osteoporosis patients having normal renal function, a group of osteoporosis patients having mild renal dysfunction, and a group of osteoporosis patients having moderate renal dysfunction.
# [4] = mild impairment (≧50-<80), after 48 W
# [5] = mild impairment (≧50-<80), final
# [6] = moderate impairment (<50), after 24 W
# [7] = moderate impairment (<50), after 48 W
# [8] = moderate impairment (<50), after 72 W
# [9] = moderate impairment (<50), final
# [10] = high-risk patients, 5 units, after 26 W
# [11] = high-risk patients, 5 units, after 52 W
# [12] = high-risk patients, 5 units, after 78 W
# [13] = high-risk patients, 5 units, after 104 W
# [14] = high-risk patients, 5 units, after 130 W
# [15] = high-risk patients, 100 units, after 26 W
# [16] = high-risk patients, 100 units, after 52 W
# [17] = high-risk patients, 100 units, after 78 W
# [18] = high-risk patients, 100 units, after 104 W
# [19] = high-risk patients, 100 units, after 130 W
# [20] = low-risk patients, 5 units, after 26 W
# [21] = low-risk patients, 5 units, after 52 W
# [22] = low-risk patients, 5 units, after 78 W
# [23] = low-risk patients, 5 units, after 104 W
# [24] = low-risk patients, 5 units, after 130 W
# [25] = low-risk patients, 100 units, after 26 W
# [26] = low-risk patients, 100 units, after 52 W
# [27] = low-risk patients, 100 units, after 78 W
# [28] = low-risk patients, 100 units, after 104 W
# [29] = low-risk patients, 100 units, after 130 W
substance,measurement,setting,value
teriparatide acetate,"Change in lumbar vertebral density (%), median","[1]; mild impairment (≧50-<80), after 24 W",3.7%
same,"Change in lumbar vertebral density (%), mean",[1]; [4],6.0%
same,"Change in lumbar vertebral density (%), median",[1]; [4],5.7%
same,"Change in lumbar vertebral density (%), mean","[1]; mild impairment (≧50-<80), after 72 W",6.3%
same,"Change in lumbar vertebral density (%), mean",[1]; [5],5.8%
same,"Change in lumbar vertebral density (%), median",[1]; [5],5.4%
same,"Change in lumbar vertebral density (%), mean",[1]; [6],3.7%
same,"Change in lumbar vertebral density (%), median",[1]; [6],3.5%
same,"Change in lumbar vertebral density (%), mean",[1]; [7],4.9%
same,"Change in lumbar vertebral density (%), median",[1]; [7],3.8%
same,"Change in lumbar vertebral density (%), mean",[1]; [8],6.1%
same,"Change in lumbar vertebral density (%), median",[1]; [8],6.3%
same,"Change in lumbar vertebral density (%), mean",[1]; [9],5.6%
same,"Change in lumbar vertebral density (%), median",[1]; [9],4.9%
same,"Change in lumbar vertebral density (%), mean","[1]; normal (≧80), after 24 W",4.3%
same,"Change in lumbar vertebral density (%), median","[1]; normal (≧80), after 24 W",5.1%
same,"Change in lumbar vertebral density (%), mean","[1]; normal (≧80), after 48 W",5.4%
same,"Change in lumbar vertebral density (%), median","[1]; normal (≧80), after 48 W",5.6%
same,"Change in lumbar vertebral density (%), mean","[1]; normal (≧80), after 72 W",8.1%
same,"Change in lumbar vertebral density (%), median","[1]; normal (≧80), final",5.6%
same,"Change in bone density (%), lumbar spine",[1]; 24 W,3.50%
same,"Change in bone density (%), neck of femur",[1]; 24 W,2.53%
same,"Change in bone density (%), proximal femur",[1]; 24 W,2.46%
same,"Change in bone density (%), lumbar spine",[1]; 48 W,5.97%
same,"Change in bone density (%), neck of femur",[1]; 48 W,2.79%
same,"Change in bone density (%), proximal femur",[1]; 48 W,3.39%
same,"Change in bone density (%), lumbar spine",[1]; 72 W,6.82%
same,"Change in bone density (%), neck of femur",[1]; 72 W,2.44%
same,"Change in bone density (%), proximal femur",[1]; 72 W,3.06%
same,New vertebral fractures every 26 weeks: Incidence (%),[2]; [10],9.5%
same,New vertebral fractures every 26 weeks: No. of fractures,[2]; [10],8
same,New vertebral fractures every 26 weeks: No. with fractures,[2]; [10],6
same,New vertebral fractures every 26 weeks: Incidence (%),[2]; [11],11.1%
same,New vertebral fractures every 26 weeks: No. of fractures,[2]; [11],9
same,New vertebral fractures every 26 weeks: No. with fractures,[2]; [11],7
same,New vertebral fractures every 26 weeks: Incidence (%),[2]; [12],7.0%
same,New vertebral fractures every 26 weeks: No. of fractures,[2]; [12],4
same,New vertebral fractures every 26 weeks: No. with fractures,[2]; [12],4
same,New vertebral fractures every 26 weeks: Incidence (%),[2]; [13],2.9%
same,New vertebral fractures every 26 weeks: No. of fractures,[2]; [13],1
same,New vertebral fractures every 26 weeks: No. with fractures,[2]; [13],1
same,New vertebral fractures every 26 weeks: No. of fractures,[2]; [14],0
same,New vertebral fractures every 26 weeks: No. with fractures,[2]; [14],0
same,New vertebral fractures every 26 weeks: Incidence (%),[2]; [15],2.0%
same,New vertebral fractures every 26 weeks: No. of fractures,[2]; [15],1
same,New vertebral fractures every 26 weeks: No. with fractures,[2]; [15],1
same,New vertebral fractures every 26 weeks: Incidence (%),[2]; [16],2.0%
same,New vertebral fractures every 26 weeks: No. of fractures,[2]; [16],1
same,New vertebral fractures every 26 weeks: No. with fractures,[2]; [16],1
same,New vertebral fractures every 26 weeks: Incidence (%),[2]; [17],2.2%
same,New vertebral fractures every 26 weeks: No. of fractures,[2]; [17],1
same,New vertebral fractures every 26 weeks: No. with fractures,[2]; [17],1
same,New vertebral fractures every 26 weeks: No. of fractures,[2]; [18],0
same,New vertebral fractures every 26 weeks: No. with fractures,[2]; [18],0
same,New vertebral fractures every 26 weeks: No. of fractures,[2]; [19],0
same,New vertebral fractures every 26 weeks: No. with fractures,[2]; [19],0
same,New vertebral fractures every 26 weeks: No. of fractures,[2]; [20],0
same,New vertebral fractures every 26 weeks: No. with fractures,[2]; [20],0
same,New vertebral fractures every 26 weeks: Incidence (%),[2]; [21],4.8%
same,New vertebral fractures every 26 weeks: No. of fractures,[2]; [21],1
same,New vertebral fractures every 26 weeks: No. with fractures,[2]; [21],1
same,New vertebral fractures every 26 weeks: No. of fractures,[2]; [22],0
same,New vertebral fractures every 26 weeks: No. with fractures,[2]; [22],0
same,New vertebral fractures every 26 weeks: No. of fractures,[2]; [23],0
same,New vertebral fractures every 26 weeks: No. with fractures,[2]; [23],0
same,New vertebral fractures every 26 weeks: No. of fractures,[2]; [24],0
same,New vertebral fractures every 26 weeks: No. with fractures,[2]; [24],0
same,New vertebral fractures every 26 weeks: Incidence (%),[2]; [25],8.3%
same,New vertebral fractures every 26 weeks: No. of fractures,[2]; [25],2
same,New vertebral fractures every 26 weeks: No. with fractures,[2]; [25],1
same,New vertebral fractures every 26 weeks: No. of fractures,[2]; [26],0
same,New vertebral fractures every 26 weeks: No. with fractures,[2]; [26],0
same,New vertebral fractures every 26 weeks: No. of fractures,[2]; [27],0
same,New vertebral fractures every 26 weeks: No. with fractures,[2]; [27],0
same,New vertebral fractures every 26 weeks: No. of fractures,[2]; [28],0
same,New vertebral fractures every 26 weeks: No. with fractures,[2]; [28],0
same,New vertebral fractures every 26 weeks: No. of fractures,[2]; [29],0
same,New vertebral fractures every 26 weeks: No. with fractures,[2]; [29],0
same,Adverse events: point estimate of the difference (PTH200 group vs P group),[3],2.0

# From US20120252729A1, “PTH-CONTAINING THERAPEUTIC/PROPHYLACTIC AGENT FOR OSTEOPOROSIS, CHARACTERIZED IN THAT PTH IS ADMINISTERED ONCE A WEEK IN A UNIT DOSE OF 100 TO 200 UNITS” (ASAHI KASEI PHARMA CORPORATION, priority 2009, published 2012)
